Activity calls are given as the source filed them. The rule behind the calls is not given here.

Experiment [1] addresses T1, Discoidin domain-containing receptor 2 (Homo sapiens) (UniProt Q16832).
T1 sequence (whole entry): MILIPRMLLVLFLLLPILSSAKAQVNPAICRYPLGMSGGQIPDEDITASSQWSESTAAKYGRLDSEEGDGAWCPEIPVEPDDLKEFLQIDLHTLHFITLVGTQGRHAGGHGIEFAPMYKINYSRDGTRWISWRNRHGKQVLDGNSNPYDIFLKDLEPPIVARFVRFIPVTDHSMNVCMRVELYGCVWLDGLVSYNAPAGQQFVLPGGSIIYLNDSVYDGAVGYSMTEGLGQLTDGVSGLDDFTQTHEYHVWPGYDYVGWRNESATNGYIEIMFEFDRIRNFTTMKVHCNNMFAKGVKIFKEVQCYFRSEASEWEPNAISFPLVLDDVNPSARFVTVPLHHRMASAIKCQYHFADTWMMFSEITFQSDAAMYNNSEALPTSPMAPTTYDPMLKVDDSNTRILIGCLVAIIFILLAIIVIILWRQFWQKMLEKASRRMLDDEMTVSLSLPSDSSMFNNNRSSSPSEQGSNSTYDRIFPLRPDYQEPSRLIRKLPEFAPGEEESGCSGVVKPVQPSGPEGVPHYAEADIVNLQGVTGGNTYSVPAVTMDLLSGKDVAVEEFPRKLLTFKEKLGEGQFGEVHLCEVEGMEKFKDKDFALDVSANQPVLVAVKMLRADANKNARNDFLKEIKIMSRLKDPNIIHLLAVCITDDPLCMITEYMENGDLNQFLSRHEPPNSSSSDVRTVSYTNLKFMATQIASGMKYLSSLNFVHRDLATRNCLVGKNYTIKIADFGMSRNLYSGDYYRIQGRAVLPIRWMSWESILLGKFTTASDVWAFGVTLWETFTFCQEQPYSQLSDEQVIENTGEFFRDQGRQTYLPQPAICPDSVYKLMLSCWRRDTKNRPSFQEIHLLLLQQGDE
The experiment in a line: Inhibition of DDR2 (unknown origin) assessed as remaining activity at 1 uM using fluorescein-poly GAT as substrate in presence of ATP by TR-FRET assay relative to control.

The target of experiment [2] is High affinity nerve growth factor receptor (Homo sapiens) (UniProt P04629). The experiment is described as follows: Inhibition of TRK-A (unknown origin) assessed as remaining activity at 1 uM using fluorescein-poly GAT as substrate in presence of ATP by TR-FRET assay relative to control. Background: Time-resolved FRET reads energy transfer from a long-lived donor to a nearby acceptor.

Experiment [3] concerns the target BDNF/NT-3 growth factors receptor (Homo sapiens) (UniProt Q16620). The experiment is described as follows: Inhibition of TRK-B (unknown origin) assessed as remaining activity at 1 uM using fluorescein-poly GAT as substrate in presence of ATP by TR-FRET assay relative to control.
Experiment [4] has as its target NT-3 growth factor receptor (Homo sapiens) (UniProt Q16288). The experiment is described as follows: Inhibition of TRK-C (unknown origin) assessed as remaining activity at 1 uM using fluorescein-poly GAT as substrate in presence of ATP by TR-FRET assay relative to control.
Experiment [5] has as its target T2, Discoidin domain-containing receptor 2 (Homo sapiens, UniProt Q16832).
T2 sequence (Q16832 whole entry): T1 sequence (whole entry)
The experiment is described as follows: Inhibition of DDR2 (unknown origin).

Experiment [6] relates to A549. The experiment is described as follows: Antiproliferative activity against human A549 cells incubated for 72 hrs by MTT assay. The following applies: A549, 72 h. On the technique in general: Tetrazolium dyes change colour on reduction, which living cells bring about.
Experiment [7] is described as follows: Antiproliferative activity against human SPCA1 cells incubated for 72 hrs by MTT assay. To be noted: SPCA1, 72 h.
For the next experiment, the system named is NCI-H1975. The experiment is described as follows: Antiproliferative activity against human NCI-H1975 cells incubated for 72 hrs by MTT assay. To be noted: NCI-H1975, 72 h.
Experiment [8] concerns NIH3T3. The experiment in a line: Inhibition of TGF-beta1 induced mouse NIH3T3 cells activation assessed as reduction in collagen-I accumulation at 5 uM preincubated with TGF-beta1 followed by compound addition by immunofluorescence staining based assay. The format is functional, cell-based.
In experiment [9] the test system is A549. The experiment is described as follows: Effect on DDR1 level in human A549 cells at 50 to 200 nM by Western blotting analysis. The format is functional, cell-based. To be noted: dose 50-200 nM. For orientation: A western blot detects proteins with antibodies after separation by electrophoresis.
For experiment [10], the system named is A549. The experiment in a line: Effect on ERK1/2 level in human A549 cells at 50 to 200 nM by Western blotting analysis. The experiment is classed as functional, cell-based. To be noted: dose 50-200 nM.
In experiment [11] the test system is A549. The experiment in a line: Effect on AKT1 level in human A549 cells at 50 to 200 nM by Western blotting analysis. The format is functional, cell-based. The following applies: dose 50-200 nM.
The test system of experiment [12] is A549. The experiment is described as follows: Inhibition of epithelial-to-mesenchymal transition in human A549 cells assessed as upregulation of E-cadherin protein expression at 50 to 200 nM by Western blotting analysis. The experiment is classed as functional, cell-based. The following applies: dose 50-200 nM.
The test system of experiment [13] is A549. The experiment in a line: Inhibition of epithelial-to-mesenchymal transition in human A549 cells assessed as downregulation of N-cadherin protein expression at 50 to 200 nM by Western blotting analysis. The format is functional, cell-based. To be noted: dose 50-200 nM.
For experiment [14], the system named is A549. The experiment is described as follows: Antitumor activity against human A549 cells xenografted in SPF BALB/c nude mouse assessed as tumor growth inhibition at 30 mg/kg, ip administered for 14 days. The format is functional, organism-based. The following applies: time 14.0 day.
Experiment [15] has as its system NIH3T3. The experiment is described as follows: Inhibition of TGF-beta1 induced mouse NIH3T3 cells activation assessed as reduction in alpha-SMA level at 5 uM preincubated with TGF-beta1 followed by compound addition by immunofluorescence staining based assay. The experiment is classed as functional, cell-based.
The next experiment has as its system Mus musculus. The experiment is described as follows: Antifibrotic activity against bleomycin-induced C57BL/6 mouse model of pulmonary fibrosis assessed as increase in animal survival at 30 mg/kg, ip administered once daily for 21 days. The format is functional, organism-based. To be noted: time 21.0 day.

Sequence of High affinity nerve growth factor receptor (Homo sapiens) (P04629 33-796 limits assumed): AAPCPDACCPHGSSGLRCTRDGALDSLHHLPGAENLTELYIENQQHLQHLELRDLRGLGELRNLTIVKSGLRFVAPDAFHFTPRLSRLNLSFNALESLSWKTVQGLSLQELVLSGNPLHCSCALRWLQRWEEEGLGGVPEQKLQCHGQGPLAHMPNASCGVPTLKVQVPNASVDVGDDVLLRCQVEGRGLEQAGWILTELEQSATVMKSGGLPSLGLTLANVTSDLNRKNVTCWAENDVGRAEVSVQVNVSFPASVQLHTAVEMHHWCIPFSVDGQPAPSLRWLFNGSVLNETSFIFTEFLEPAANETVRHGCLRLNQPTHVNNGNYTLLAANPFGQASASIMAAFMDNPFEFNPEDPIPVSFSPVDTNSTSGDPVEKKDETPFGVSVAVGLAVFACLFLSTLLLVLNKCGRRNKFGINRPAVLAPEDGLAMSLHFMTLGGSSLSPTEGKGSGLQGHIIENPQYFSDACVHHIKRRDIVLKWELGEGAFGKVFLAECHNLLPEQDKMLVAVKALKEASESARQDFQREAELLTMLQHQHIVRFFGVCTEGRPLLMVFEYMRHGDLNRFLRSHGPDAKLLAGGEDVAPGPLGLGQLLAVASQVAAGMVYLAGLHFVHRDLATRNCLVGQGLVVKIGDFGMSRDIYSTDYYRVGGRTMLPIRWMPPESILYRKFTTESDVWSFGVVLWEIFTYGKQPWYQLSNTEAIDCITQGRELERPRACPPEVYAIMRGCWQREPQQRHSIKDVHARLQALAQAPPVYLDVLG
Sequence of BDNF/NT-3 growth factors receptor (Homo sapiens) (Q16620 32-822 limits assumed): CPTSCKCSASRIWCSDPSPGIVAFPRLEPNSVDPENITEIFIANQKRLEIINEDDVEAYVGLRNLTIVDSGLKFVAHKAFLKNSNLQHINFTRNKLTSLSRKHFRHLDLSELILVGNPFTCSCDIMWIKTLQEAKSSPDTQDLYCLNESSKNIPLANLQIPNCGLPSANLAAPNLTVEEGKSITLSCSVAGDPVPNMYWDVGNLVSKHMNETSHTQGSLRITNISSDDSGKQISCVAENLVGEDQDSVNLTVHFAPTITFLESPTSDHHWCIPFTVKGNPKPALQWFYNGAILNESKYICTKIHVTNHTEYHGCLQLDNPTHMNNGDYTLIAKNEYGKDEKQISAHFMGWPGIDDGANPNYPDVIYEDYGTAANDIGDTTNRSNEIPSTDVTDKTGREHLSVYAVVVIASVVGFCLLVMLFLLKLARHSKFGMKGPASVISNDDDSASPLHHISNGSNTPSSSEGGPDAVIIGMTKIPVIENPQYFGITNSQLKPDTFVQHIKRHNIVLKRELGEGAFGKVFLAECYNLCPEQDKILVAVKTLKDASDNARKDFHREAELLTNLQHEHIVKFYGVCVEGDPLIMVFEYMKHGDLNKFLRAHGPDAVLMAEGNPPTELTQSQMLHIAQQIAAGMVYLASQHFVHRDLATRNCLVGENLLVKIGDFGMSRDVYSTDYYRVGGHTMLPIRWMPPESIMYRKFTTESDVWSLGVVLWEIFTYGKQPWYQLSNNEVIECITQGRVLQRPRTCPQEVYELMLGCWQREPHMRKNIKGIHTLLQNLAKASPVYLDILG
Sequence of NT-3 growth factor receptor (Homo sapiens) (Q16288 32-839 limits assumed): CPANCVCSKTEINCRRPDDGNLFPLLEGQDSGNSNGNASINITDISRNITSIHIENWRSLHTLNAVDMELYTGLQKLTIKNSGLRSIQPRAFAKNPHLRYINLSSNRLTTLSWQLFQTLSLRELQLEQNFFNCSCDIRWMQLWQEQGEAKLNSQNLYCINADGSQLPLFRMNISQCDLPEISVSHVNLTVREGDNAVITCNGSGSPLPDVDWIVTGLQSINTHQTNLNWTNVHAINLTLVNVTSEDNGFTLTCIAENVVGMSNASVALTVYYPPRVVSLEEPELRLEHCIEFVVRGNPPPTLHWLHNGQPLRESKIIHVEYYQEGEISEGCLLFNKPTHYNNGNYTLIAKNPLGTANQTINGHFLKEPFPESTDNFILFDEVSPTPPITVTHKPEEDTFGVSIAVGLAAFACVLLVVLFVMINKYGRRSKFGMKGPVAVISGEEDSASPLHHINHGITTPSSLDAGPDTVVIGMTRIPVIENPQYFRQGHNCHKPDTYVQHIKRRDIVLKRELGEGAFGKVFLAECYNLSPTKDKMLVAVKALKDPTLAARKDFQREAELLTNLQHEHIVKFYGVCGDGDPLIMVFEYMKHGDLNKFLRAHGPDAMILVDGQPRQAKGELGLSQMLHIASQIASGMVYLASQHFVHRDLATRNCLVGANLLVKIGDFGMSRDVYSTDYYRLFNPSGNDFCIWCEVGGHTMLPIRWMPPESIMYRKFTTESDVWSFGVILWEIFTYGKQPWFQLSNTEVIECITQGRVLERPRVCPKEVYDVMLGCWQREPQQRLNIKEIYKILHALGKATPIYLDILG

By IC50 is commonly meant the point on the concentration scale where inhibition reaches its midpoint. The low end stands for greater potency in that assay, the high end for weaker potency in that assay. Turning to `COc1ccc2c(c1)c(CNC(=O)Nc1ccc(F)cc1F)cn2CC(=O)N1CCCC1`, the Activity stood at 50.8% in experiment [1], 74% in [2], 104% in experiment [3] and 76.2% in [4]. The IC50 came to 1330 nM in [5], 6.96 µM in the experiment with A549 [6], 7350 nM in [7] and 3.72 µM in the experiment on NCI-H1975.

As to `Cc1nc(Nc2ncc(C(=O)Nc3c(C)cccc3Cl)s2)cc(N2CCN(CCO)CC2)n1` [DASATINIB ANHYDROUS], the inhibition entry in the experiment on NIH3T3 [8], with A549 [12], in the experiment on A549 [13] and in the experiment with NIH3T3 [15] was “Active” in each case. Besides, the IC50 came to 2.55 µM with A549 [6], 2460 nM in experiment [7] and 1.26 µM with NCI-H1975. Besides, the result with A549 [9], with A549 [10] and with A549 [11] was inactive. Further, the outcome with A549 [14] and in the experiment on Mus musculus was Active.

For `COc1ccc2c(c1)c(CNC(=O)Nc1ccccc1Cl)cn2CC(=O)N1CCN(C)CC1`, the Activity in experiment [1] came to 55.9%; in experiment [2], 94%; in [3], 93.4%; in experiment [4] it was 82.9%.

Consider `COc1ccc(NC(=O)NCc2cn(CC(=O)N3CCCC3)c3ccc(F)cc23)cc1`, for which the Activity in [1] was determined as 86.3%; in [2], 71.6%; in experiment [3], 83.8%; in [4], 110%.

Turning to `COc1ccc2c(c1)c(CNC(=O)Nc1ccc(F)cc1F)cn2CC(=O)N1CCOCC1`, the Activity in experiment [1] amounted to 74.7%; in experiment [2], 77.8%; in experiment [3], 73.1%; in [4] it was 60.5%.

As to `O=C(NCc1cn(CC(=O)N2CCOCC2)c2ccc(F)cc12)Nc1ccc(C(F)(F)F)cc1`, the Activity in [1] worked out at 90.2%; in [2] it was 77.5%; in experiment [3], 72.2%; in [4], 98.3%.

`CN1CCN(C(=O)Cn2cc(CNC(=O)Nc3ccccc3Cl)c3cc(F)ccc32)CC1`: the Activity in experiment [1] came out at 73.5%; in experiment [2], 81.8%; in experiment [3] it was 89.6%; in experiment [4] it was 90.2%.

Take `COc1ccc2c(c1)c(CNC(=O)Nc1ccccc1Cl)cn2CC(=O)N1CCCCC1`: the Activity in experiment [1] came to 64.3%; in experiment [2] it was 74.8%; in experiment [3], 87.4%; in [4] it was 68.9%.

For `COc1ccc2c(c1)c(CNC(=O)Nc1ccc(C)cc1)cn2CC(=O)N1CCCC1`, the Activity in [1] came to 84.8%; in experiment [2], 75.2%; in experiment [3], 87.9%; in experiment [4] it was 77.5%.

In the case of `COc1ccc2c(c1)c(CNC(=O)Nc1ccc(C(F)(F)F)cc1)cn2CC(=O)N1CCN(C)CC1`, the Activity in experiment [1] turned out to be 102%; in experiment [2], 96%; in [3] it was 104%; in experiment [4], 106%.

As for `COc1ccc(NC(=O)NCc2cn(CC(=O)N3CCN(C)CC3)c3ccc(F)cc23)cc1`, the Activity in [1] was 73.5%; in [2], 80%; in experiment [3], 104%; in experiment [4] it was 106%.

In the case of `COc1ccc2c(c1)c(CNC(=O)Nc1ccc(F)cc1F)cn2CC(=O)N1CCN(C)CC1`, the Activity in experiment [1] came out at 66.5%; in experiment [2], 93.1%; in experiment [3], 88.9%; in [4] it was 68.8%.

Regarding `COc1ccc2c(c1)c(CNC(=O)Nc1ccc(C(F)(F)F)cc1)cn2CC(=O)N1CCCC1`, the Activity in [1] was found to be 99.5%; in experiment [2], 90.4%; in [3] it was 72.2%; in experiment [4], 89.7%.

In the case of `COc1ccc2c(c1)c(CNC(=O)Nc1ccccc1Cl)cn2CC(=O)N1CCCC1`, the Activity in experiment [1] was 67.8%; in [2] it was 95.7%; in experiment [3], 99.3%; in experiment [4], 69.6%.

Turning to `O=C(NCc1cn(CC(=O)N2CCOCC2)c2ccc(F)cc12)Nc1ccccc1Cl`, the Activity in [1] was found to be 54.5%; in experiment [2], 78%; in experiment [3] it was 83.8%; in experiment [4], 87.4%.

Regarding `O=C(NCc1cn(CC(=O)N2CCCCC2)c2ccc(F)cc12)Nc1ccc(F)cc1F`, the Activity amounted to 41.3% in [1], 88.2% in [2], 106% in experiment [3] and 83.5% in experiment [4]. Also, the IC50 was 1190 nM in [5], 1.67 µM with A549 [6], 1730 nM in experiment [7] and 3.86 µM in the experiment on NCI-H1975.

For `COc1ccc(NC(=O)NCc2cn(CC(=O)N3CCOCC3)c3ccc(F)cc23)cc1`, the Activity in [1] was 79.4%; in [2] it was 90.8%; in experiment [3], 107%; in [4], 82.7%.

In the case of `CN1CCN(C(=O)Cn2cc(CNC(=O)Nc3ccc(C(F)(F)F)cc3)c3cc(F)ccc32)CC1`, the Activity in experiment [1] was 74.2%; in experiment [2], 81.5%; in experiment [3], 105%; in [4], 93.7%.

Turning to `COc1ccc(NC(=O)NCc2cn(CC(=O)N3CCCCC3)c3ccc(F)cc23)cc1`, the Activity is 80.6% in experiment [1], 92.7% in [2], 80.1% in [3] and 101% in [4].

In the case of `COc1ccc2c(c1)c(CNC(=O)Nc1ccc(C)cc1)cn2CC(=O)N1CCOCC1`, the Activity in [1] stood at 89.6%; in experiment [2] it was 81.3%; in experiment [3] it was 84%; in experiment [4], 87.5%.

With `O=C(NCc1cn(CC(=O)N2CCCC2)c2ccc(F)cc12)Nc1ccc(F)cc1F`, the Activity turned out to be 32.5% in experiment [1], 95.7% in experiment [2], 69.5% in experiment [3] and 75.2% in experiment [4]. Also, the IC50 in [5] turned out to be 1670 nM; in the experiment on A549 [6], 11.2 µM; in experiment [7], 10500 nM; with NCI-H1975 it was 5.34 µM.

On to `Cc1ccc(NC(=O)NCc2cn(CC(=O)N3CCCCC3)c3ccc(F)cc23)cc1`, for which the Activity in experiment [1] came out at 92.5%; in [2] it was 99.7%; in experiment [3], 97%; in [4], 99.7%.

Regarding `O=C(NCc1cn(CC(=O)N2CCOCC2)c2ccc(F)cc12)Nc1ccc(F)cc1F`, the Activity in experiment [1] was determined as 53.5%; in experiment [2], 93.8%; in [3], 72.8%; in experiment [4], 82.7%. In addition, the IC50 in [5] came out at 450 nM; in the experiment on A549 [6], 3.72 µM; in [7], 2820 nM; in the experiment with NCI-H1975, 1.98 µM.
